Assays:
CDK2 = molecular target: T1, CDK2 (Homo sapiens, UniProt P24941); experiment: Kinase selectivity profiling (focused panel), radioactive filter plate assay: CDK2; type: biochemical; settings: Histone H1-derived peptide, 0.1 μM ATP, 60 min
T1 construct: purchased Carna Biosciences 04-103
Description: (§1) The purpose of this assay is to determine the activity and selectivity of a compound of the invention on a selected range of human kinases which may result in undesirable side-effects when inhibited (Dy & Adjei 2013; Force & Kolaja 2011).
(§2) The IC50 value for off-target kinases is determined in radioactive filter plate assays. The principle of the assays consists in the measurement of incorporated ^33P into a peptide substrate upon phosphorylation by the kinase enzyme using [γ-^33P]ATP and ATP. Unincorporated ^33P is removed by loading the samples on a filter plate (using a harvester, PerkinElmer) and 6 subsequent washing steps. Incorporated ^33P in the peptide substrate is measured by a scintillation counter (Topcount, PerkinElmer) after addition of MicroScint™-20 (PerkinElmer, 6013621) to the filter plates.
(§3) 5 μL of a water dilution series of test compound (starting from 20 μM or 6.6 μM highest concentration), from a 100% DMSO stock solution, 1/5 dilution, is added to the wells (final DMSO concentration of 1% in reaction assay). Enzyme and peptide substrate are used at optimized concentrations (cf. Table VI). The enzyme and substrate are diluted in assay buffer to a total volume of 11 μL. The reaction is started by addition of 9 μL of ATP+[γ-^33P]ATP, diluted in the same buffer as enzyme and substrate. The mixture is incubated at 30° C. The reaction is terminated by adding 25 μL of 150 mM phosphoric acid. Samples are transferred to filter plates and incorporated radioactivity is measured using a scintillation counter.
(§4) The incubation time, assay buffer composition, and concentrations of ATP, enzyme and substrate are reported in Table VI for example kinase off-target assays.
(§5) 10 μM staurosporine (1% DMSO) is used as positive control (100% inhibition); vehicle (water+1% DMSO) as negative control (0% inhibition).

GSK3b = molecular target: T2, GSK3b (Homo sapiens, UniProt P49841); experiment: Kinase selectivity profiling (focused panel), radioactive filter plate assay: GSK3b; type: biochemical; settings: Phospho glycogen synthase peptide2, 1.5 μM ATP, 90 min
T2 construct: purchased Carna Biosciences 04-141
Description: as §1, §2, §3, §4, §5

c-SRC = molecular target: T3, c-SRC (Homo sapiens, UniProt P12931); experiment: Kinase selectivity profiling (focused panel), radioactive filter plate assay: c-SRC; type: biochemical; settings: PolyGT substrate, 0.25 μM ATP, 60 min
T3 construct: purchased Carna Biosciences 08-173
Description: as §1, §2, §3, §4, §5

[1] = system: IL-1β triggered IL-6 release in SW1353 cells; experiment: SW1353 cellular selectivity assay, IL-1β trigger, IL-6 ELISA readout; type: cell-based, human; settings: IL-1β trigger 1 ng/mL; for IC50: Homo sapiens; for IL-1β trigger IL-6 PIN at 20 μM: percent inhibition at 20 μM compound
Excerpt: (§6) The aim of this assay is to evaluate the selectivity of compounds of the invention for the activated TLR/IRAK-4 pathway in an in vitro human cellular assay setting. SW1353 cells are from a chondrocytic cell line and are responsive to both the interleukin 1 (IL-1) and the TNFα cytokine triggers. Both cytokine triggers induce the expression of interleukin 6 (IL-6) and MMP13 by these cells. IL-6 and MMP13 releases are used as readouts in this assay and represent a measure for the level of inhibition of the TLR/IRAK-4 pathway by the tested compound.
(§7) SW1353 cells are cultured in DMEM supplemented with 10% FBS and 1% Penicillin/Streptomycin. Cells are incubated at 37° C. in a humidified atmosphere of 5% CO2 and subcultured twice a week. During subculturing, trypsin-EDTA is used to detach the cells, followed by a neutralization step with cell culture medium. After centrifugation (1,000 rpm during 5 min), the pellet is resuspended in cell culture medium and cells are counted using an automated cell counter (Invitrogen Countess™).
(§8) Cells are used at passage 16 and plated at a density of 15,000 cells per well in 120 μL cell culture medium in 96-well culture plates. Cells are allowed to attach during overnight incubation.
(§9) SW1353 cells are pre-incubated with test compound by addition of 15 μL of 10× concentrated compound solution for 2 h at 37° C. and 5% CO2. The compounds are tested at different concentrations and prepared by 3-fold serial dilutions from the 10 mM stock solution in DMSO followed by a 1/50 dilution step in cell culture medium. Final test concentrations in the assay start from 20 μM, with subsequent 3-fold serial dilutions with equal final DMSO concentrations of 0.2%. After the compound pre-incubation step, the SW1353 cells are triggered by addition of 15 μL of 10× concentrated IL-1f (Peprotech, 200-01B) or TNFα trigger (Peprotech, 300-01A) to the wells with final assay volume of 150 μL per well and final trigger concentration of 1 ng/mL and 10 ng/mL, respectively. Negative controls are adjusted with equal DMSO concentrations without trigger. The assay plates are then incubated in a humidified incubator at 37° C. and 5% CO2. Cell supernatants are harvested 24 h and 48 h later by transferring the cell medium into a V-bottom polypropylene 96-well plate and stored at −80° C. until ELISA readout.
(§10) The levels of secreted IL-6 in the cell supernatants are quantified in an enzyme-linked immunosorbent assay (ELISA). […] Luminescence of the converted substrate is measured with a Luminoskan™ Ascent luminometer.
(§11) All controls are measured within the linear range of the human IL-6 and MMP13 standard curve of the ELISA. […]

[2] = system: TNFα triggered IL-6 release in SW1353 cells; experiment: SW1353 cellular selectivity assay, TNFα trigger, IL-6 ELISA readout; type: cell-based, human; settings: TNFα trigger 10 ng/mL; for IC50: Homo sapiens; for TNFα trigger IL-6 PIN at 20 μM: percent inhibition at 20 μM compound
Excerpt: as §6, §7, §8, §9, §10, §11

T3 sequence (P12931 whole entry): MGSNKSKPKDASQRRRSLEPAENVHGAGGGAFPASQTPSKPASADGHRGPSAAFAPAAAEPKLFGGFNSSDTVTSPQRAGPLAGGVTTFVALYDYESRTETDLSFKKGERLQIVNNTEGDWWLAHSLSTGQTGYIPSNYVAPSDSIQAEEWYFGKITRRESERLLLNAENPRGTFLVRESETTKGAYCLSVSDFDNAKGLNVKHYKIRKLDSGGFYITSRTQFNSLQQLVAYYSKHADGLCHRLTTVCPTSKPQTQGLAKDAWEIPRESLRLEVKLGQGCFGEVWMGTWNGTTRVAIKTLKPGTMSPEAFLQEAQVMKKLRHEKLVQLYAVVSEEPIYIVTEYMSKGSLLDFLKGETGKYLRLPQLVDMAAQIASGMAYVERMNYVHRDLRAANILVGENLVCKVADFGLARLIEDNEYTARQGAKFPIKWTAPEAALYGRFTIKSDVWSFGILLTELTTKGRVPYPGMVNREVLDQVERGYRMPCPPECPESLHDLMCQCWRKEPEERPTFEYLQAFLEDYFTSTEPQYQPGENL
T2 sequence (P49841 whole entry): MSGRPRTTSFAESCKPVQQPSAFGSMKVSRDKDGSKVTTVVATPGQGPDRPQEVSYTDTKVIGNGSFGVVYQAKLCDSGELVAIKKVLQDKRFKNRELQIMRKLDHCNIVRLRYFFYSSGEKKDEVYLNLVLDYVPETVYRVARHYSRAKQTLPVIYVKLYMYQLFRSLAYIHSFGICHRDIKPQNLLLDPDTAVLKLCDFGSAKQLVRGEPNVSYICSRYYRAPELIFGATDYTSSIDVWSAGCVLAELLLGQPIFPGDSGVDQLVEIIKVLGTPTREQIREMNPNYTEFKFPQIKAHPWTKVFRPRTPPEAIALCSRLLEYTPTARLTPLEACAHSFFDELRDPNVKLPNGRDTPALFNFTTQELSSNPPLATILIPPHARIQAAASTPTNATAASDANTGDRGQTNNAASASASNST

SMILES	IC50 (CDK2) [nM]	IC50 (GSK3b) [nM]	IC50 (c-SRC) [nM]	IC50 [1] [nM]	IL-1β trigger IL-6 PIN at 20 μM [1]	IC50 [2] [nM]	TNFα trigger IL-6 PIN at 20 μM [2]
N#Cc1ccc(-n2cnc3cc(OCCOCCO)c(NC4CCOCC4)nc32)nc1 [Compound 1, 6-[6-[2-(2-hydroxy-ethoxy)-ethoxy]-5-(tetrahydro-pyran-4-ylamino)-imidazo[4,5-b]pyridin-3-yl]-nicotinonitrile]	> 6670	> 6670	> 1330	54	[89%]	> 20000	[54%]
C[C@]1(O)CC[C@@H](Nc2nc3c(cc2OCCOCCO)ncn3-c2ccc(C#N)cn2)CC1 [Compound 12, 6-[6-[2-(2-hydroxyethoxy)ethoxy]-5-[((cis-1,4)-4-hydroxy-4-methylcyclohexyl)amino]imidazo[4,5-b]pyridin-3-yl]pyridine-3-carbonitrile]	944	> 1330	477	40	[80%]	> 20000	[22%]
